Assay results from patent publication US6894054B2, “Heterocyclic inhibitors of glycine transporter 2” (Telik, Inc., priority 2001, dated 2005).

target: T1, rat glycine transporter subtype 2 (GlyT2) (Rattus norvegicus, UniProt P58295); assay: Inhibition of glycine transporter 2: 3H-glycine uptake in CHO cells expressing rat GlyT2; format: cell-based; settings: GlyT2 inhibitory concentration, 15 min preincubation, 10 nM 3H-glycine, 7 min uptake, read-out: GlyT2 Inhib.
T1 construct: expressed in transfected cells; host or cells: CHO cells
T1 sequence (P58295 1-799): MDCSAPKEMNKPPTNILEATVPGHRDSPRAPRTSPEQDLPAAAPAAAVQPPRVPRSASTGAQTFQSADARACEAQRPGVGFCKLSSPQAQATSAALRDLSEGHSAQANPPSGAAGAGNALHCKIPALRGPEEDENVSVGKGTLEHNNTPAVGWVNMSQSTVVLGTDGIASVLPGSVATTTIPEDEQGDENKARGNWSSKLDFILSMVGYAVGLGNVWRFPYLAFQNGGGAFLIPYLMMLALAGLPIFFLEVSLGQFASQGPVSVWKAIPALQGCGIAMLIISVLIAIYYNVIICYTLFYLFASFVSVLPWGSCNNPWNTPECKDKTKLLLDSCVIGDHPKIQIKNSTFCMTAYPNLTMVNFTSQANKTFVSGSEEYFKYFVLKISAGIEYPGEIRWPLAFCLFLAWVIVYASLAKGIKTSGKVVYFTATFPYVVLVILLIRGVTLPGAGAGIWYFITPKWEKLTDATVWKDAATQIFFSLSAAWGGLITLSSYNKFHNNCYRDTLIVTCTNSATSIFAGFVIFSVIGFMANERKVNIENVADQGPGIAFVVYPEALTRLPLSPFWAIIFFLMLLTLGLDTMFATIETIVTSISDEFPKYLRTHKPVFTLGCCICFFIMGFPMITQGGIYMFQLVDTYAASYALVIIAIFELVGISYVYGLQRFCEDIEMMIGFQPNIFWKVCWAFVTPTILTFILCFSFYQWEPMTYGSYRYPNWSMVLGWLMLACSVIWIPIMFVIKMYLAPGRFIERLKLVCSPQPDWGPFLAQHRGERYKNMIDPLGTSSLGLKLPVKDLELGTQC
Protocol: CHO cells expressing rat glycine transporter subtype 2 (GlyT2) were grown in high glucose Dulbecco's modified Eagle's medium supplemented with 10% bovine fetal serum at 37° C. in a 5% CO2 atmosphere. Subconfluent cells growing in 24- or 96-well plates were washed with PBS, and were preincubated at 37° C. for 15 min with uptake buffer (100 mM NaCl, 2 mM KCl, 1 mM CaCl2, 1 mM MgCl2, 10 mM HEPES, pH 7.5) containing sample compounds. Uptake was initiated by adding prewarmed ^3H-glycine yielding a 10 nM final glycine concentration, and was terminated after 7 min by aspiration of the buffer. Cells were washed 3 times with ice-cold PBS, and radioactivity was determined by scintillation counting using TopCount. GlyT2 inhibitory concentrations for several compounds of Formula I are given below.

Going from `CCn1nc(C)cc1-c1nnc(SCc2ccccc2)n1-c1ccccc1` [Compound 7, 3-benzylthio-5-(2-ethyl-5-methyl-3-diazolyl)-4-phenyl-1,2,4-triazole] to `c1ccc(CSc2nnc(CCCCc3nnc(SCc4ccccc4)o3)o2)cc1` [Compound 21, 2,2′-(1,4-butanediyl)bis[5-(benzylthio)-1,3,4-oxadiazole]], the IC50 falls from 6600 nM to 1100 nM (6-fold). The second is the more potent here.

For `Clc1cccc(Cl)c1CSc1nnc(-c2cnccn2)s1` [Compound 12, 5-[(2,6-dichlorophenyl)methylthio]-2-(pyrazin-2-yl)-1,3,4-thiadiazole], the IC50 was 900 nM.
